For 40 compounds, IC50 results are on record in US9624215B2, “Amine derivative or salt thereof” (TOYAMA CHEMICAL CO., LTD., priority 2012, dated 2017).

Structures are written as SMILES. pIC50: −log10 of the molar value.

The test concerns normal human neonatal foreskin epidermal keratinocytes (NHEK-F). Description: Cell proliferation inhibition test. Type of test: cell-based. The following applies: Keratinocyte, 72 h, NHEK-F cells, three days incubation, ATPlite or CellTiterGlo, read-out: IC50 (concentration of the compound at which the cell count is reduced by 50%). The protocol: 2×10^3 normal human neonatal foreskin epidermal keratinocytes (NHEK-F) (Kurabo, KK-4009) were suspended in 100 μL of Humedia-EG2 (Kurabo, KK-2150S) medium, plated in a 96-well plate and incubated overnight. The test compound was added on the following day and the cells were incubated for further three days. The cell count was determined using ATPlite (PerkinElmer, 6016739) or CellTiterGlo (Promega, G7573).
The inhibition rate was calculated from the following formula to determine the concentration of the compound at which the cell count is reduced by 50% (IC50). Inhibition rate (%)=100−(cell count in the presence of test compound/cell count in the absence of test compound)×100
On to `N#Cc1ccc(Cn2ccc3cc(Nc4ncc(C5CC5)cc4C(=O)O)ccc32)cc1` [Example 454, 2-((1-(4-cyanobenzyl)-1H-indol-5-yl)amino)-5-cyclopropylnicotinic acid], for which the pIC50 was 7.00 to 8.00.

With `O=C(O)c1cc(C2CC2)cnc1Nc1ccc2ncnc(-c3ccccc3)c2c1` [Example 533, 5-cyclopropyl-2-((4-phenylquinazolin-6-yl)amino)nicotinic acid], the pIC50 is 6.00 to 7.00.

For the compound `O=C(O)c1cc(C2CC2)cnc1Nc1cc(-c2ccccc2)c2[nH]ccc2c1` [Example 227, 5-cyclopropyl-2-((7-phenyl-1H-indol-5-yl)amino)nicotinic acid], the pIC50 was 7.00 to 8.00.

Regarding `Cn1ccc2cc(Nc3ncc(C4CC4)cc3C(=O)O)cc(-c3cccc(C(F)(F)F)c3)c21` [Example 480], the pIC50 is no less than 8.00.

Turning to `O=C(O)c1cc(Cl)ccc1Nc1ccc2c(ccn2-c2cccnc2)c1` [Example 49, 5-chloro-2-((1-(pyridin-3-yl)-1H-indol-5-yl)amino)benzoic acid], the pIC50 was 7.00 to 8.00.

Turning to `O=C(O)c1cc(C2CC2)ccc1Nc1ccc2c(ccn2C(=O)c2ccc(Cl)cc2)c1` [Example 204, 2-((1-(4-chlorobenzoyl)-1H-indol-5-yl)amino)-5-cyclopropylbenzoic acid], the pIC50 is 7.00 to 8.00.

As to `COc1cnc(Nc2ccc3c(ccn3Cc3ccccc3)c2)c(C(=O)O)c1` [Example 132, 2-((1-benzyl-1H-indol-5-yl)amino)-5-methoxynicotinic acid], the pIC50 is 7.00 to 8.00.

Turning to `Cn1cc(C2CCCCC2)c2cc(Nc3ncc(C4CC4)cc3C(=O)O)ccc21` [Example 612, 2-((3-cyclohexyl-1-methyl-1H-indol-5-yl)amino)-5-cyclopropylnicotinic acid], the pIC50 is 7.00 to 8.00.

On to `O=C(O)c1cc(Cl)cnc1Nc1ccc2c(ccn2Cc2cccc(F)c2)c1` [Example 645, 5-chloro-2-((1-(3-fluorobenzyl)-1H-indol-5-yl)amino)nicotinic acid], for which the pIC50 is 7.00 to 8.00.

Turning to `Cc1cccc(-c2cn(C)c3ccc(Nc4ncc(C5CC5)cc4C(=O)O)cc23)c1` [Example 569, 5-cyclopropyl-2-((1-methyl-3-(3-methylphenyl)-1H-indol-5-yl)amino)nicotinic acid], the pIC50 is 6.00 to 7.00.

As for `Cn1ccc2cc(Nc3ncc(C4CC4)cc3C(=O)O)cc(-c3ccc(-c4ccccc4)cc3)c21` [Example 191, 2-((7-([1,1′-biphenyl]-4-yl)-1-methyl-1H-indol-5-yl)amino)-5-cyclopropylnicotinic acid], the pIC50 is no less than 8.00.

Turning to `CC(C)Cn1c(=O)sc2cc(Nc3ncc(C4CC4)cc3C(=O)O)ccc21` [Example 563, 5-Cyclopropyl-2-((3-isobutyl-2-oxo-2,3-dihydro-1,3-benzothiazol-6-yl)amino)nicotinic acid], the pIC50 is 7.00 to 8.00.

For `O=C(O)c1cc(C2CC2)cnc1Nc1ccc2c(-c3ccccc3)cn(CC3CC3)c2c1` [Example 45, 5-cyclopropyl-2-((1-(cyclopropylmethyl)-3-phenyl-1H-indol-6-yl)amino)nicotinic acid], the pIC50 was 7.00 to 8.00.

As to `O=C(O)c1cc(C2CC2)cnc1Nc1ccc2c(c1)CCCN2c1ccccc1` [Example 181, 5-cyclopropyl-2-((1-phenyl-1,2,3,4-tetrahydroquinolin-6-yl)amino)nicotinic acid], the pIC50 is no less than 8.00.

As to `Cn1ccc2cc(Nc3ncc(C4CC4)cc3C(=O)O)cc(-c3cc(F)cc(F)c3)c21` [Example 586, 5-cyclopropyl-2-((7-(3,5-difluorophenyl)-1-methyl-1H-indol-5-yl)amino)nicotinic acid], the pIC50 is no less than 8.00.

For the compound `O=C(O)c1cc(C2CC2)cnc1Nc1ccc2c(ccn2Cc2ccncc2)c1` [Example 148, 5-cyclopropyl-2-((1-(pyridin-4-ylmethyl)-1H-indol-5-yl)amino)nicotinic acid], the pIC50 was 6.00 to 7.00.

As to `O=C(O)c1cc(Cl)ccc1Nc1ccc2ccn(Cc3ccccc3)c2c1` [Example 4, 2-((1-benzyl-1H-indol-6-yl)amino)-5-chlorobenzoic acid], the pIC50 is 6.00 to 7.00.

For the compound `O=C(O)c1cc(Cl)ccc1Nc1ccc2c(ccn2-c2cnc3ccccc3c2)c1` [Example 317, 5-chloro-2-((1-(quinolin-3-yl)-1H-indol-5-yl)amino)benzoic acid], the pIC50 was no less than 8.00.

Consider `Cn1cc(-c2ccccc2)c2ccc(Nc3ncc(C4CC4)cc3C(=O)O)cc21` [Example 41, 5-cyclopropyl-2-((1-methyl-3-phenyl-1H-indol-6-yl)amino)nicotinic acid], for which the pIC50 was 7.00 to 8.00.

For `O=C(O)c1cc(C2CC2)cnc1Nc1cnc2c(ccn2Cc2ccccc2)c1` [Example 545, 2-((1-benzyl-1H-pyrrolo(2,3-b)pyridin-5-yl)amino)-5-cyclopropylnicotinic acid], the pIC50 was no less than 8.00.

On to `Cn1ccc2cc(Nc3ncc(C4CC4)cc3C(=O)O)cc(-c3cccc(OC(F)(F)F)c3)c21` [Example 492, 5-cyclopropyl-2-((1-methyl-7-(3-(trifluoromethoxy)phenyl)-1H-indol-5-yl)amino)nicotinic acid], for which the pIC50 was no less than 8.00.

`Cn1cc(-c2cccc(F)c2)c2cc(Nc3ncc(C4CC4)cc3C(=O)O)ccc21` [Example 559, 5-Cyclopropyl-2-((3-(3-fluorophenyl)-1-methyl-1H-indol-5-yl)amino)nicotinic acid]: the pIC50 was 7.00 to 8.00.

In the case of `O=C(O)c1cc(C2CC2)ccc1Nc1ccc2[nH]cc(-c3ccccc3)c2c1` [Example 377, 5-cyclopropyl-2-((3-phenyl-1H-indol-5-yl)amino)benzoic acid], the pIC50 is 7.00 to 8.00.

`O=C(O)c1cc(C2CC2)cnc1Nc1ccc2c(c1)cc(-c1ccccc1)n2Cc1ccccc1` [Example 387, 2-((1-benzyl-2-phenyl-1H-indol-5-yl)amino)-5-cyclopropylnicotinic acid]: the pIC50 is 7.00 to 8.00.

On to `O=C(O)c1cc(C2CC2)cnc1Nc1ccc2c(ccn2Cc2ccccc2C(F)(F)F)c1` [Example 449, 5-cyclopropyl-2-((1-(2-(trifluoromethyl)benzyl)-1H-indol-5-yl)amino)nicotinic acid], for which the pIC50 is 7.00 to 8.00.

Consider `Cc1ccc(-c2cn(C)c3ccc(Nc4ncc(C5CC5)cc4C(=O)O)cc23)cc1` [Example 571, 5-cyclopropyl-2-((1-methyl-3-(4-methylphenyl)-1H-indol-5-yl)amino)nicotinic acid], for which the pIC50 is 7.00 to 8.00.

As for `O=C(O)c1cc(C2CC2)cnc1Nc1ccc2c(-c3ccccc3)c[nH]c2c1` [Example 43, 5-cyclopropyl-2-((3-phenyl-1H-indol-6-yl)amino)nicotinic acid], the pIC50 was 7.00 to 8.00.

Regarding `Cn1ccc2cc(Nc3ncc(C4CC4)cc3C(=O)O)cc(/C=C/C3CC3)c21` [Example 469, (E)-5-cyclopropyl-2-((7-(2-cyclopropylvinyl)-1-methyl-1H-indol-5-yl)amino)nicotinic acid], the pIC50 is no less than 8.00.

With `O=C(O)c1cc(C2CC2)cnc1Nc1ccc2c(ccn2Cc2cccc(OC(F)(F)F)c2)c1` [Example 496, 5-cyclopropyl-2-((1-(3-(trifluoromethoxy)benzyl)-1H-indol-5-yl)amino)nicotinic acid], the pIC50 was 7.00 to 8.00.

For `COc1ccccc1-c1cn(C)c2ccc(Nc3ncc(C4CC4)cc3C(=O)O)cc12` [Example 581, 5-cyclopropyl-2-((3-(2-methoxyphenyl)-1-methyl-1H-indol-5-yl)amino)nicotinic acid], the pIC50 is 7.00 to 8.00.

Consider `O=C(O)c1cc(C2CC2)cnc1Nc1cccc2c(-c3ccccc3)ncnc12` [Example 531, 5-cyclopropyl-2-((4-phenylquinazolin-8-yl)amino)nicotinic acid], for which the pIC50 was 7.00 to 8.00.

Turning to `CC(C)n1ccc2c(Nc3ncc(C4CC4)cc3C(=O)O)cccc21` [Example 435, 5-cyclopropyl-2-((1-isopropyl-1H-indol-4-yl)amino)nicotinic acid], the pIC50 is 7.00 to 8.00.

For the compound `Cn1ccc2cc(Nc3ncc(C4CC4)cc3C(=O)O)cc(-c3ccc(OC(F)(F)F)cc3)c21` [Example 493, 5-cyclopropyl-2-((1-methyl-7-(4-(trifluoromethoxy)phenyl)-1H-indol-5-yl)amino)nicotinic acid], the pIC50 was no less than 8.00.

Regarding `Cn1ccc2cc(Nc3ncc(C4CC4)cc3C(=O)O)cc(-c3ccc(C(F)(F)F)cc3)c21` [Example 481], the pIC50 is no less than 8.00.

In the case of `Cn1ccc2cc(Nc3ncc(C4CC4)cc3C(=O)O)cc(CCC3CCCCC3)c21` [Example 593, 2-((7-(2-cyclohexylethyl)-1-methyl-1H-indol-5-yl)amino)-5-cyclopropylnicotinic acid], the pIC50 is no less than 8.00.

Regarding `Cn1ccc2cc(Nc3ncc(C4CC4)cc3C(=O)O)cc(-c3cc(F)ccc3F)c21` [Example 590, 5-cyclopropyl-2-((7-(2,5-difluorophenyl)-1-methyl-1H-indol-5-yl)amino)nicotinic acid], the pIC50 was no less than 8.00.

Regarding `Cn1ccc2cc(Nc3ncc(C4CC4)cc3C(=O)O)cc(-c3ccccc3-c3ccccc3)c21` [Example 463, 2-((7-([1,1′-biphenyl]-2-yl)-1-methyl-1H-indol-5-yl)amino)-5-cyclopropylnicotinic acid], the pIC50 is no less than 8.00.

As to `O=C(O)c1cc(Br)cnc1Nc1ccc2c(ccn2Cc2cccc(F)c2)c1` [Example 627, 5-bromo-2-((1-(3-fluorobenzyl)-1H-indol-5-yl)amino)nicotinic acid], the pIC50 was 7.00 to 8.00.

In the case of `O=C(O)c1cc(C2CC2)cnc1Nc1ccc2c(ccn2Cc2cc(F)c(F)cc2F)c1` [Example 643, 5-cyclopropyl-2-((1-(2,4,5-trifluorobenzyl)-1H-indol-5-yl)amino)nicotinic acid], the pIC50 is no less than 8.00.

Consider `CCCn1ccc2cc(Nc3ncc(C4CC4)cc3C(=O)O)ccc21` [Example 636, 5-cyclopropyl-2-((1-propyl-1H-indol-5-yl)amino)nicotinic acid], for which the pIC50 was 7.00 to 8.00.
